How the values were obtained:
[1] = (§1) The drug is tested on Z-025 corresponding to rabbit gut metagenome with ENA study accession number: PRJEB37062 and ENA sample accession number: ERS12561824 for biotransformation under anaerobic condition. The drug concentrations were measured over 9 timepoints collected between 0 and 24 hours of incubation by liquid-chromatography-coupled mass spectrometry (LC–MS); details: 2 µM
[2] = as §1, with “Z-029” for “Z-025”, “rat” for “rabbit”, “ERS12561828” for “ERS12561824”; details: 2 µM
[3] = human gut metagenome, 24 h, 2 µM
[4] = human gut metagenome, 24 h, 2 µM; remark: listed apart in the source
[5] = as §1, with “WLS-090” for “Z-025”, “human” for “rabbit”, “ERS12561753” for “ERS12561824”; details: 2 µM
[6] = human gut metagenome, 24 h, 2 µM; remark: listed apart in the source
[7] = as §1, with “Z-027” for “Z-025”, “to” for “to rabbit gut”, “ERS12561826” for “ERS12561824”; details: 2 µM
[8] = as §1, with “Z-009” for “Z-025”, “pig” for “rabbit”, “ERS12561809” for “ERS12561824”; details: 2 µM
[9] = human gut metagenome, 24 h, 2 µM; remark: listed apart in the source
[10] = human gut metagenome, 24 h, 2 µM; remark: listed apart in the source
[11] = human gut metagenome, 24 h, 2 µM; remark: listed apart in the source
[12] = as §1, with “WLS-006” for “Z-025”, “human” for “rabbit”, “ERS12561741” for “ERS12561824”; details: 2 µM
[13] = as §1, with “Z-002” for “Z-025”, “ERS12561802” for “ERS12561824”; details: 2 µM
[14] = human gut metagenome, 24 h, 2 µM; remark: listed apart in the source
[15] = human gut metagenome, 24 h, 2 µM; remark: listed apart in the source
[16] = as §1, with “Z-023” for “Z-025”, “to” for “to rabbit gut”, “ERS12561822” for “ERS12561824”; details: 2 µM
[17] = as §1, with “WLS-027” for “Z-025”, “human” for “rabbit”, “ERS12561744” for “ERS12561824”; details: 2 µM
[18] = human gut metagenome, 24 h, 2 µM; remark: listed apart in the source
[19] = as §1, with “Z-012” for “Z-025”, “to” for “to rabbit gut”, “ERS12561812” for “ERS12561824”; details: 2 µM
[20] = as §1, with “Z-005” for “Z-025”, “to” for “to rabbit gut”, “ERS12561805” for “ERS12561824”; details: 2 µM
Also: call rule not given here.

Compound	Bacterial Biotransformation [1]	Bacterial Biotransformation [2]	Bacterial Biotransformation [3]	Bacterial Biotransformation [4]	Bacterial Biotransformation [5]	Bacterial Biotransformation [6]	Bacterial Biotransformation [7]	Bacterial Biotransformation [8]	Bacterial Biotransformation [9]	Bacterial Biotransformation [10]	Bacterial Biotransformation [11]	Bacterial Biotransformation [12]	Bacterial Biotransformation [13]	Bacterial Biotransformation [14]	Bacterial Biotransformation [15]	Bacterial Biotransformation [16]	Bacterial Biotransformation [17]	Bacterial Biotransformation [18]	Bacterial Biotransformation [19]	Bacterial Biotransformation [20]
CN1CCc2cccc3c2[C@H]1Cc1ccc(O)c(O)c1-3 [APOMORPHINE]	Compound metabolized	Compound NOT metabolized	Compound NOT metabolized	Compound NOT metabolized	Compound NOT metabolized	Compound NOT metabolized	Compound NOT metabolized	Compound metabolized	Compound NOT metabolized	Compound NOT metabolized	Compound NOT metabolized	Compound NOT metabolized	Compound NOT metabolized	Compound NOT metabolized	Compound NOT metabolized					
C[C@@H]1CC[C@H]2[C@@H](C)C(=O)O[C@@H]3O[C@@]4(C)CC[C@@H]1[C@]32OO4 [ARTEMISININ]		Compound metabolized	Compound metabolized	Compound metabolized	Compound metabolized	Compound metabolized	Compound metabolized		Compound metabolized	Compound metabolized	Compound metabolized	Compound metabolized		Compound metabolized	Compound metabolized	Compound metabolized	Compound metabolized	Compound metabolized		
C#C[C@]1(O)CC[C@H]2[C@@H]3CCC4=Cc5oncc5C[C@]4(C)[C@H]3CC[C@@]21C [DANAZOL]	Compound metabolized	Compound NOT metabolized			Compound metabolized		Compound metabolized		Compound NOT metabolized	Compound metabolized		Compound metabolized				Compound metabolized	Compound metabolized	Compound metabolized		
Cc1ccc(/C(=C\CN2CCCC2)c2ccccn2)cc1 [TRIPROLIDINE]	Compound NOT metabolized		Compound NOT metabolized	Compound NOT metabolized	Compound NOT metabolized	Compound NOT metabolized	Compound NOT metabolized	Compound NOT metabolized	Compound NOT metabolized	Compound NOT metabolized	Compound NOT metabolized	Compound metabolized	Compound NOT metabolized	Compound NOT metabolized	Compound NOT metabolized	Compound NOT metabolized	Compound NOT metabolized	Compound NOT metabolized	Compound NOT metabolized	Compound NOT metabolized
CN1C(=O)CCS(=O)(=O)C1c1ccc(Cl)cc1 (stereo not drawn) [CHLORMEZANONE]	Compound NOT metabolized		Compound NOT metabolized	Compound NOT metabolized	Compound metabolized	Compound NOT metabolized	Compound NOT metabolized	Compound NOT metabolized	Compound NOT metabolized	Compound NOT metabolized	Compound NOT metabolized	Compound metabolized	Compound NOT metabolized	Compound NOT metabolized	Compound metabolized	Compound NOT metabolized	Compound NOT metabolized	Compound NOT metabolized	Compound NOT metabolized	Compound NOT metabolized

Source: ChEMBL document CHEMBL5724914, “Linking interpersonal differences in gut microbiota composition and drug biotransformation activity” (2024)
